Data as given in patent US6733971B2, “Method for identifying an agent that affects a hedgehog signaling pathway” (priority 1998, dated 2004).

Legend:
ShhRE [1] = experiment: ShhRE-tkCAT reporter mRNA and enzyme activity in P19 cells with cycloheximide; assay type: cell-based, mouse; conditions: 50 μM for 14 hours
Method: Methods described in Example 6 were used in addition to the following protocols. P19 cells were co-transfected with either three copies of the ShhRE or mutant ShhRE (mShhRE) element placed upstream of the tk-CAT along with tk-LUC plasmid as an internal control. Cells were treated with 1.0 nM Shh-N (12 hours) and with or without 50 μM cycloheximide (Chx) for 14 hours and harvested to obtain total RNA. Sixty μg of total RNA from these cells were used in an RNase protection assay. RNase protection assays were performed as described in Example 6. Specific riboprobes were generated to analyze the relative levels of the CAT and LUC mRNA levels. A 255 bp region of the CAT coding sequence or 123 bp of the luciferase coding region was used to generate an antisense riboprobe and was hybridized with 60 μg of total RNA, obtained from transfected P19 cells. The amount (50 μM) and extent (14 hours) of cycloheximide treatment was based on inhibition of protein synthesis as indicated by a significant loss in reporter enzyme activity.

COUP-TFII mRNA = COUP-TFII mRNA in P19 cells, RNase protection assay; assay type: cell-based, mouse; conditions: for Shh-induced COUP-TFII mRNA: with 1.0 nM Shh-N
Method: The P19 mouse embryo carcinoma cell line which was earlier shown to contain increased levels of COUP-TF transcripts after retinoid treatment was utilized. Jonk, L. J. C., et al., Mechan. of Dev. (1994) 47:81-97). Conditioned media obtained from COS-1 cells transfected with mouse Shh-N cDNA expression plasmid or purified E. coli expressed recombinant Shh-N was used.
Briefly, a total of 20 μg RNA was hybridized to a 450 (FIG. 5A) or 120 (FIG. 7B) nucleotide riboprobe that corresponds to the 5′ untranslated region (UTR) of the COUP-TFII gene along with a 670 (FIG. 5A) or 102 (FIG. 7B) nucleotide riboprobe of the murine Cyclophilin A coding region. The RPA II™ kit from Ambion was used to perform the RNase protection assay. The products were subjected to RNase digestion and analyzed on a 6% urea polyacrylamide gel.
(§1) P-19 cells were treated with phosphatase inhibitors to study the endogenous levels of COUP-TFII mRNA. […] Total RVA was isolated from these cells and 20 μg of RNA was used in a RNase protection assay as described above in Example 6. A region of the murine Cyclophilin A cDNA was used to generate riboprobe and was used as an internal control. P19 cells were co-treated with (FIG. 7C, lane 2, 4, 6, and 7) or without (FIG. 7C, lane 1, 3, and 5) 1.0 nM Shh-N and 5 nM OA (lane 3 and 4), 0.5 nM CyA (FIG. 7C, lane 5 & 6) or 5 nm NoA (FIG. 7C, lane 9). Cells were harvested after 24 hours of treatment and the nuclear extract was obtained for the binding reactions. Extracts were subjected to an EMSA as described earlier.

ShhRE [2] = experiment: EMSA of Shh-induced protein binding to radiolabeled ShhRE, P19 nuclear extracts; assay type: cell-based, mouse; conditions: 1.0 nM Shh-N, 24 hours
Method: Methods described in Example 6 were used in addition to the following protocols. P19 cells were treated with or without Shh-N for 24 hours and nuclear extracts were obtained and used in an electrophoretic mobility shift assay (EMSA) with radiolabeled ShhRE. The following oligos were used as competitors or probes in these assays; WT ShhRE—GTTCTACATAATGCGCCG—SEQ ID NO:1; mShhRE—GTTCTACgTgATGCGCCG—SEQ ID NO:3; GliRE—[…]—. SEQ ID NO:4, Different amounts of unlabeled Gli response element (GliRE) (FIG. 5C, lane 3, 100X; lane 4, 50X; lane 5, 25X; and lane 6, 10X) or ShhRE (lane 7; 100X, lane 8; 50X and lane 9; 10X) was used as a competitor at the indicated molar excess.
In EMSA, radiolabeled probe was incubated with the nuclear extracts (10 μg) along with 4 μg poly dG-dC in a binding reaction containing 10 mM Tris pH 7.5, 50 mM NaCl, 1 mM EDTA, 1 mM DTT, 0.1 mg/ml BSA, and 5% glycerol. Later the mixture was loaded onto a 5% polyacrylamide gel and the retarded complexes were separated-in 1× TBE buffer and analyzed using autoradiography.
as §1

lambda phosphatase = biological target: T1, lambda phosphatase (Escherichia phage lambda, UniProt P03772); experiment: Lambda phosphatase treatment of immunoprecipitated Ci, mobility shift; assay type: biochemical; conditions: 1 mM sodium orthovanadate, 30° C. for 1 hour
T1 sequence (P03772 1-221): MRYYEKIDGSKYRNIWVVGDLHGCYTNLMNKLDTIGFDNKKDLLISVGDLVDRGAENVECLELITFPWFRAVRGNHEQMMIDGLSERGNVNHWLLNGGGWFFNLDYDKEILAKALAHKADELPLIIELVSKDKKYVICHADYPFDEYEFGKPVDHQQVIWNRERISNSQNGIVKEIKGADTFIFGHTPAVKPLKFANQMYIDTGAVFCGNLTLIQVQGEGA
Method: cl-8 cells were incubated in conditioned medium for 4 hours and lysed on ice for 20 minutes in 1 ml of NP-40 lysis buffer per T75 flask. The lysate was incubated with 100 μl of anti-Ci 2A1 or 0.3 μl of normal rat serum at 4° C. for 2 hours. 50 μl of 50% Protein G beads were added and incubated for 1 hour. The beads were collected and washed in NP-40 lysis buffer, then in lambda phosphatase buffer (50 mM Tris pH 7.8, 5 mM dithiothritol, 20 mM MnCl2, […] bovine serum albumin, 20 μg/ml aprotinin, 20 μg/ml leupeptin, 1 μg/ml pepstatin A, 2.5 μg/ml antipain, 100 μM PMSF). The beads were resuspended in 50 μl of lambda phosphatase buffer, plus 1 mM of sodium orthovanadate or 1.5 μl (30 unit) of lambda phosphatase according to the procedure. Each sample was incubated at 30° C. for 1 hour, then washed in NP-40 lysis buffer, and was boiled in SDS sample buffer for analysis.

Ci = Ci induction in cl-8 cells with or without HH-N conditioned medium, Western blot; assay type: cell-based, Drosophila; conditions: up to 100 nM, 4 hours, presence of HH or not
Method: cl-8 cells were cultured as described in Van Leeuwen, F., et al. Nature, 368:342-344, 1994. Culture and transfection of S2 cells were performed as described in Porter, J. A. et al. Cell, 86: 21-34, 1996. The conditioned medium was made by culturing transfected S2 cells in cl-8 medium, and induced by adding CUSO4, to the final concentration of 0.5 Mm overnight. The conditioned medium was harvested the next day, centrifuged to remove S2 cells and the supernatant was used. To make lysate from cl-8 cells, cl-8 cells were washed, harvested in cold phosphate buffered saline (PBS), and then resuspended in NP-40 lysis buffer (150 Mm NaCl, 50 Mm Tris pH8, 1% NP-40, 1 Mm EDTA, 20 μg/ml aprotinin, 20 μg/ml leupeptin, 1 μg/ml pepstatin A, 2.5 μg/ml antipain, 100 μM PMSF, 50 mM NaF, 5 mM Na2P4O7). Cells were lysed at 4° C. for 10 minutes, then centrifuged at 13,000×g for 10 minutes. The supernatant was saved for Western blot analysis.
SDS-PAGE and protein transfer were carried out by standard methods. The primary antibodies used were: rat monoclonal anti-Ci 2Al 1:20 dilution; mouse monoclonal anti-Ptc 1:1000 dilution; mouse monoclonal anti-actin 1:2500. Secondary antibodies were from Jackson Immunologicals. The filters were developed using SuperSignal from Pierce.
Tautomycin (TAU) and okadaic acid (OA) were purchased from Calbiochem and dissolved in dimethyl sulfoxide (DMSO) to different concentrations. The phosphatase inhibitors were mixed with conditioned medium and the concentration of DMSO was adjusted to 0.2% for each sample. cl-8 cells were incubated with conditioned medium and phosphatase inhibitor mixture for 4 hours and lysed for analysis.

phosphatase 1 (PP1) = conditions: read-out: IC50, phosphatase 1 (PP1) inhibition; cited from earlier work
[3] = test system: PP1 and PP2A enzyme activity; experiment: Protein phosphatase assay on nuclear extracts of control and Shh treated P19 cells; assay type: biochemical, mouse
Method: P19 cells were treated with or without 1 nM Shh for 36 hours and nuclear extracts from these cells were obtained as described earlier. A protein phosphatase assay system™ (Life Technologies, Bethesda) was used to quantitate the phosphatase activity present in the control and induced extracts. P19 cells were treated with or without 1 nM Shh for 36 hours and nuclear extracts from these cells were obtained and incubated with 2 nM OA or 4 nM Inh-2 protein for 15 minutes at 30° C. Results are expressed as mean±sd from three separate experiments.

For `C[C@@H]1C[C@@H]([C@H](O)CC2CC(=O)NC(=O)C2)C(=O)[C@@H](C)C1` [cycloheximide], the “CAT and luciferase activities” value (ShhRE [1]) was “inhibited” and the “Shh-induced increase in CAT mRNA” value (ShhRE [1]; 1 nM Shh-N) was “not altered”.

For `COC[C@@H]([C@H](O)[C@H](O)C(=O)NCC[C@H](C)c1nc(/C=C/C[C@@H]2O[C@]3(C[C@@H](O)[C@@H]2C)O[C@H]([C@H](C[C@H](O)[C@H](C)[C@H](O)[C@H](C)/C=C(C)/C(C)=C/C=C/C(C)=C\C#N)OC)[C@H](OP(=O)(O)O)C3(C)C)co1)N(C)C` [CyA, calyculin A], the “Shh-induced COUP-TFII mRNA” value (COUP-TFII mRNA; 0.5 nM for 12 hours) was “complete inhibition” and the “Shh-induced binding to radiolabeled ShhRE” value (ShhRE [2]; 0.5 nM) was “abolished”.

In the case of `[Na+].[Na+].[Na+].[O]=[V]([O-])([O-])[O-]` [sodium orthovanadate], the “effect of lambda phosphatase on Ci mobility” value (lambda phosphatase) is reported as “reversed”.

With Nor-Okadone [NoA] the “Shh-induced COUP-TFII mRNA” value (COUP-TFII mRNA; 5 nM for 12 hours) was “incapable of inhibiting” and the “Shh-induced binding to radiolabeled ShhRE” value (ShhRE [2]; 5 nM) was “unable to inhibit”.

For `CO[C@H]([C@H](O)CC(=O)[C@@H](C)[C@@H](O)CC[C@@H](C)[C@@H]1O[C@]2(CC[C@@H](C)[C@H](CC[C@H](C)C(C)=O)O2)CC[C@@H]1C)[C@H](OC(=O)C[C@@H](O)C1=C(C)C(=O)OC1=O)C(C)C` [TAU, Tautomycin], the “effect on Ci” value (Ci) is given as “did not to have any effect” and the IC50 (phosphatase 1 (PP1)) is given as 10 nM.

For “Shh-N: purified E. coli expressed recombinant amino-terminal fragment of mouse Sonic hedgehog”, the “concentration at which a significant increase in COUP-TFII mRNA was observed” value (COUP-TFII mRNA; P19 cells, 24 hours, densitometric analysis) was ≤ 0.2 nM and the “net increase in phosphatase activity after Shh treatment” value ([3]; 1 nM Shh, 36 hours, P19 nuclear extracts) was 2 fold.

B1: Inhibitor-2: Inh-2 protein, a specific inhibitor of PP1 (protein, UniProt P41236 2-205, looked up)
Protein phosphatase inhibitor …: AASTASHRPIKGILKNKTSTTSSMVASAEQPRGNVDEELSKKSQKWDEMNILATYHPADKDYGLMKIDEPSTPYHSMMGDDEDACSDTEATEAMAPDILARKLAAAEGLEPKYRIQEQESSGEEDSDLSPEEREKKRQFEMKRKLHYNEGLNIKLARQLISKDLHDDDEDEEMLETADGESMNTEESNQGSTPSDQQQNKLRSS
With B1 the Shh-induced phosphatase activity ([3]; 4 nM Inh-2 protein, 15 minutes at 30° C.) was “unable to inhibit”.
